Target: BRD4 (Homo sapiens, UniProt O60885)
Test: Time resolved fluorescence resonance energy transfer (TR-FRET) binding assay, bromodomain BRD4
Settings: one of the FRET assays described; read-out: FRET BRD4 IC50

Q: `[2H]C([2H])([2H])c1nnn(C)c1-c1cnc2c3c(OC(C)C)ncc(S(C)(=O)=O)c3n([C@H](c3ccc(F)cc3)C3CCOCC3)c2c1` [Example 79, 8-[(S)-(4-Fluorophenyl)(oxan-4-yl)methyl]-10-methanesulfonyl-5-[4-(^2H3)methyl-1-methyl-1H-1,2,3-triazol-5-yl]-13-(propan-2-yloxy)-3,8,12-triazatricyclo[7.4.0.0^2,^7]trideca-1(13),2(7),3,5,9,11-hexaene] was tested. Which IC50 did it give?
A: < 1 nM

Q: How did the IC50 turn out when `Cc1nnn(C)c1-c1cnc2c3ccc(N4CCS(=O)(=O)CC(C)C4)nc3n([C@H](c3ccccc3)C3CCOCC3)c2c1` (stereo partly drawn) [Example 211, 4-[5-(Dimethyl-1H-1,2,3-triazol-5-yl)-8-[(S)-oxan-4-yl(phenyl)methyl]-3,8,10-triazatricyclo[7.4.0.0^2,^7]trideca-1(9),2(7),3,5,10,12-hexaen-11-yl]-6-methyl-1λ^6,4-thiazepane-1,1-dione] was run?
A: < 10 nM

Q: Which IC50 does the source give for `Cc1nnn(C)c1-c1cnc2c3c(F)nccc3n([C@H](c3ccccc3)C3CCOCC3)c2c1` [Example 3, 5-(Dimethyl-1H-1,2,3-triazol-5-yl)-13-fluoro-8-[(S)-oxan-4-yl(phenyl)methyl]-3,8,12-triazatricyclo[7.4.0.0^2,^7]trideca-1(13),2(7),3,5,9,11-hexaene] here?
A: < 10 nM

Q: `Cc1nnn(C)c1-c1cnc2c3ccnc(Cl)c3n([C@H](c3ccccc3F)C3CCOCC3)c2c1` [Example 5, 10-Chloro-5-(dimethyl-1H-1,2,3-triazol-5-yl)-8-[(S)-(2-fluorophenyl)(oxan-4-yl)methyl]-3,8,11-triazatricyclo[7.4.0.0^2,^7]trideca-1(13),2(7),3,5,9,11-hexaene] was tested. Which IC50 did it give?
A: < 10 nM

Q: With `COC(=O)c1cnc(OC)c2c3ncc(-c4c(C)nnn4C)cc3n([C@H](c3ccccc3)C3CCOCC3)c12` [Example 135, Methyl 5-(dimethyl-1H-1,2,3-triazol-5-yl)-13-methoxy-8-[(S)-oxan-4-yl(phenyl)methyl]-3,8,12-triazatricyclo[7.4.0.0^2,^7]trideca-1(9),2,4,6,10,12-hexaene-10-carboxylate] as the compound, how does the IC50 read?
A: < 1 nM

Q: With `Cc1nnn(C)c1-c1cnc2c3ccc(N4CC5CC4CS5(=O)=O)nc3n([C@H](c3ccccc3)C3CCOCC3)c2c1` (stereo partly drawn) [Example 214, 5-[5-(Dimethyl-1H-1,2,3-triazol-5-yl)-8-[(S)-oxan-4-yl(phenyl)methyl]-3,8,10-triazatricyclo[7.4.0.0^2,^7]trideca-1(9),2(7),3,5,10,12-hexaen-11-yl]-2λ^6-thia-5-azabicyclo[2.2.1]heptane-2,2-dione] as the compound, how does the IC50 read?
A: < 1 nM

Q: For `[2H]C([2H])([2H])c1nnn(C)c1-c1cnc2c3c(NCC(F)(F)F)cncc3n([C@H](c3ccccc3)C3CCOCC3)c2c1` [Example 302, 5-[4-(^2H3)Methyl-1-methyl-1H-1,2,3-triazol-5-yl]-8-[(S)-oxan-4-yl(phenyl)methyl]-N-(2,2,2-trifluoroethyl)-3,8,11-triazatricyclo[7.4.0.0^2,^7]trideca-1(9),2(7),3,5,10,12-hexaen-13-amine], which IC50 is on record?
A: < 1 nM

Q: With `[2H]C([2H])([2H])c1nnn(C)c1-c1cnc2c3ccc(N(C)C)nc3n([C@H](c3ccccc3F)C3CCOCC3)c2c1` [Example 238, 8-[(S)-(2-Fluorophenyl)(oxan-4-yl)methyl]-N,N-dimethyl-5-[4-(^2H3)methyl-1-methyl-1H-1,2,3-triazol-5-yl]-3,8,10-triazatricyclo[7.4.0.0^2,^7]trideca-1(13),2(7),3,5,9,11-hexaen-11-amine] as the compound, how does the IC50 read?
A: < 10 nM

Q: For `[2H]C([2H])([2H])c1nnn(C)c1-c1cnc2c3cnc(C(C)=O)cc3n([C@H](c3ccccc3F)C3CCOCC3)c2c1` [Example 333], which IC50 is on record?
A: < 10 nM

Q: `[2H]C([2H])([2H])c1nnn(C)c1-c1cnc2c3ccc(N4CCN(C(C)C)CC4)nc3n([C@H](c3ccccc3)C3CCOCC3)c2c1` [Example 153, 5-[4-(^2H3)Methyl-1-methyl-1H-1,2,3-triazol-5-yl]-8-[(S)-oxan-4-yl(phenyl)methyl]-11-[4-(propan-2-yl)piperazin-1-yl]-3,8,10-triazatricyclo[7.4.0.0^2,^7]trideca-1(9),2(7),3,5,10,12-hexaene] was tested. Which IC50 did it give?
A: < 10 nM

Reference: patent publication US9725449B2, “Tricyclic compounds as anticancer agents” (BRISTOL-MYERS SQUIBB COMPANY, priority 2015, dated 2017)
